# According to the SangsterLogP compilation:
# Non-standard residues stand in square brackets, D forms with d. Residues, ends and D or L forms follow the SMILES beside them. Sar = CNCC(=O)O
# Assays:
# [1] = method code SF, from DOI: 10.1021/jm9910932, PMID: 10633041; settings: pH 7.4
# [2] = method code SF, from DOI: 10.1016/j.ejmech.2008.03.040, PMID: 18511157; settings: pH 7.4
# [3] = method code SF, from DOI: 10.1002/cmdc.201000013, PMID: 20373323; settings: pH 7.4
# [4] = method code SF-AS, from DOI: 10.1016/s0021-9673(03)00617-4, PMID: 12830921
# [5] = method code SF-AS, from DOI: 10.1016/0014-2999(72)90235-x, PMID: 4113999
# [6] = method code SF, from DOI: 10.1016/j.ejpb.2011.02.007, PMID: 21329757
# [7] = not given; remark: listed apart in the source
# [8] = method code SF-AS, from DOI: 10.1016/s0022-3565(25)38749-5, PMID: 8182532; settings: pH 7.4
# [9] = method code SF, from DOI: 10.1016/j.bmcl.2013.12.011, PMID: 24342238
# [10] = method code SF, from Zhang, H, Oberg. B.; Liu, X.; Fan, Z.; Jia, J.; et, a. (2008). Octanol/water partition coefficient determination of novel fungicide SYP-3343 by flask-shaking method using HPLC. Journal of Safety and …; settings: pH 5.0
# [11] = not given; remark: listed apart in the source
# [12] = not given; remark: listed apart in the source
# [13] = method code SF-RC, from DOI: 10.1016/0969-8051(94)00118-4, PMID: 7550031; settings: pH 7.4
# [14] = not given; remark: listed apart in the source
# [15] = pH 7.4
# [16] = method code SF-HPLC, from DOI: 10.1248/cpb.39.1032
# [17] = method code SF-AS, from PMID: 474167
# [18] = method code SF, from DOI: 10.1023/a:1015958526423, PMID: 2095573
# [19] = method code SF-HPLC, from DOI: 10.1002/ps.2780290114
# [20] = not given; remark: listed apart in the source
# [21] = method code RP-TLC, from DOI: 10.1016/s0021-9673(03)00617-4, PMID: 12830921
# [22] = method code SF-AS, from PMID: 1586384
# [23] = method code SF-HPLC, from DOI: 10.1016/j.ejps.2016.07.010, PMID: 27422078; settings: pH 7.4
# [24] = method code SF-HPLC, from DOI: 10.1016/s0223-5234(98)80037-8; settings: pH 7.4
# [25] = method code SF, from DOI: 10.1021/jm5017544, PMID: 25671691; settings: pH 7.4
# [26] = method code SF, from Huang, J.; Leng, X. (1993). Interaction of rat hepatocyte and cytochrome P 450 with pyrethroids in vitro. Dong Wu Xue Bao, 39(4)418-423.
# [27] = method code SF, from PMID: 718082
# [28] = method code SF-RC, from DOI: 10.1016/j.nucmedbio.2006.10.003, PMID: 17210465; settings: pH 7.4
# [29] = method code SF-HPLC, from DOI: 10.1023/a:1015837931256, PMID: 1788153; settings: pH 7.4
# [30] = method code SF, from DOI: 10.1021/bi00418a003, PMID: 3196678
# [31] = not given; remark: listed apart in the source
# [32] = not given; remark: listed apart in the source
# [33] = method code SF-RC, from PMID: 26778147
# [34] = method code SF-RC, from DOI: 10.1016/j.nucmedbio.2011.10.019, PMID: 22226022; settings: pH 7.4
# [35] = method code SF-RC, from DOI: 10.1016/0378-5173(86)90124-9
# [36] = method code SF-RC, from DOI: 10.1016/j.nucmedbio.2007.12.005, PMID: 18355688; settings: pH 7.4
# [37] = not given; remark: listed apart in the source
# [38] = method code SF-AS, from PMID: 17296250; settings: pH 7.2
# [39] = method code SF, from DOI: 10.1021/jm0201114, PMID: 12238930; settings: pH 7.4
# [40] = method code SF-AS, from DOI: 10.1248/cpb.26.2832
smiles,measurement,setting,value
CC(=O)NCC(=O)N(C)CC(=O)NC(CC(C)C)C(=O)NC(Cc1ccccc1)C(N)=O (stereo unspecified) (Ac-G[Sar]LF-NH2; configuration not given here),logD,[1],1.64
O=C(NC1CCCCCCC1)NS(=O)(=O)c1cnccc1Nc1cccc(C(F)(F)F)c1,logP,,2.29
N#Cc1c(C(=O)NC2CCCCC2)nn(-c2ccc(Cl)cc2Cl)c1-c1ccc(I)cc1,logD,[2],3.9
O=C1NC(=O)C(c2ccc(Oc3ccccc3)cc2)(N2CCN(CCF)CC2)C(=O)N1,logD,[3],2.15
CCC12CCCN3CCc4c(n(c5ccccc45)C(O)(C(=O)OC)C1)C32 (stereo unspecified),logP,[4],2.96
OCCN1CCN(CC/C=C2/c3ccccc3Sc3ccc(C(F)(F)F)cc32)CC1,logP,[5],3.83
C#C[C@]1(O)CC[C@H]2[C@@H]3CCC4=Cc5oncc5C[C@]4(C)[C@H]3CC[C@@]21C,logP,[6],4.21
COc1cc(N)c(Cl)cc1C(=O)NC1CC2CCCC(C1)N2Cc1ccc(F)cc1 (stereo unspecified),logP,[7],2.56
O=S1(=O)c2cccc3cccc(c23)N1CCCN1CCN(c2ccc(F)cc2)CC1,logD,[8],3.6
COc1cc(C=CC(O)=CC(=O)C=Cc2ccc(O)c(N(C)C)c2)ccc1O,logP,[9],3.65
CO/C=C(/C(=O)OC)c1ccccc1COc1cc(C)nn1-c1ccc(Cl)cc1,logD,[10],4.37
CC(C)c1nc(N(C)S(C)(=O)=O)nc(-c2ccc(F)cc2)c1/C=C\C(O)CC(O)CC(=O)O (stereo unspecified),logP,[11],2.4
CCN(CC)C(=O)Cc1c(-c2ccc(OC)cc2)nn2c(C)cc(C)nc12,logP,[12],2.44
COc1cc2c(cc1OC)C1CC(O)(C=CI)C(CC(C)C)CN1CC2 (stereo unspecified),logD,[13],3.24
CC[C@H](C)[C@H](N)C(=O)N[C@@H](CC(C)C)C1(c2ccc(Cl)cc2)CCC1,logP,[14],4.75
Cc1c(C(=O)Nc2ccc(F)cc2)nn(-c2ccc(Cl)cc2Cl)c1-c1ccc(Br)cc1,logD,[15],4
C=C[C@@]1(C)CC(=O)[C@]2(O)[C@@]3(C)[C@@H](O)CCC(C)(C)[C@@H]3[C@H](O)[C@H](OC(C)=O)[C@@]2(C)O1,logP,[16],3.12
CC(=O)[C@@]1(O)CC[C@H]2[C@@H]3CCC4=CC(=O)CC[C@]4(C)[C@H]3CC[C@@]21C,logP,[17],3.19
COc1cc(C)c(/C=C/C(C)=C/C=C/C(C)=C/C(=O)O)c(C)c1C,logP,[18],6.4
CCCCS/C(=N\c1cccnc1)SCc1ccc(C(C)(C)C)cc1,logP,[19],7
COc1cc2c(cc1OC)C1Cc3ccc(OC)c(OC)c3CN1CC2 (stereo unspecified),logP,[20],2.6
CCOC(=O)C1=C[C@]2(CC)CCCN3CCc4c(n1c1ccccc41)[C@@H]32,logP,[21],4.23
CCOC(=O)OC(C)OC(=O)c1cn2c3c(c(N4CCN(C)CC4)c(F)cc3c1=O)OCC2C (stereo unspecified),logP,[22],0.44
Cc1cc(=O)c2c(O)cc(O)c(C3CCN(C)CC3OC(=O)C(C)(C)C)c2o1 (stereo unspecified),logD,[23],1.66
COc1ccc2cc(C(C)C(=O)OCN3C(=O)c4ccccc4C3=O)ccc2c1 (stereo unspecified),logD,[24],5.03
CN(C)c1ccc(N=Nc2nc3ccc(OCCOCCOCCF)cc3s2)cc1,logD,[25],2.05
CC1(C)C(C(=O)OC(C#N)c2cccc(Oc3ccccc3)c2)C1(C)C (stereo unspecified),logP,[26],5.5
CC(=O)Nc1c(I)c(COC2C(O)C(O)OC(CO)C2O)c(I)c(COC2C(O)C(O)OC(CO)C2O)c1I (stereo unspecified),logP,[27],-1.92
CN(C)c1ccc(C=Cc2ccc(OCCOCCOCCF)cc2)cc1,logD,[28],2.41
Nc1nc2c(ncn2COCCOC(=O)c2ccc(CN3CCOCC3)cc2)c(=O)[nH]1,logD,[29],-0.05
C[C@]12CC[C@@H]3c4ccc(CCCO)cc4CC[C@H]3[C@@H]1CC[C@@H]2O,logP,[30],2.7
Cc1ccc(N2C(=O)C(=O)N(C(=O)COc3ccc4c(C)cc(=O)oc4c3C)C2=O)cc1,logP,[31],0.84
CCN(Cc1cccnc1)C(=O)CN(c1ccc(OC)nc1)S(=O)(=O)c1ccccc1C,logP,[32],2.24
O=C(Nc1ccc(F)cc1)c1ccc(N2CCN(C(=O)c3ccccc3C(F)(F)F)CC2)nn1,logP,[33],2.08
CCCCOc1c(OC)ccc2cc(C(=O)NCc3ccc(F)cc3)c(=O)[nH]c12,logD,[34],4.4
CCCCC[C@H](O)/C=C/[C@@H]1[C@@H](C/C=C\CCCC(=O)OC)[C@@H](O)C[C@H]1O,logP,[35],3.07
CN(Cc1ccccc1)C(=O)Cc1c(-c2ccc(Cl)cc2)nc2c(Cl)cc(Cl)cn12,logD,[36],2.67
FCCCCC1OC2(CCN(Cc3ccccc3)CC2)c2ccccc21 (stereo unspecified),logP,[37],4.06
CC(C=CC1=C(C)CCC1(C)C)=CC=CC(C)=CC=NNC(N)=S,logD,[38],1.05
COc1cc2ncnc(N3CCN(C(=S)NCCc4ccco4)CC3)c2cc1OC,logD,[39],2.75
CC(=O)[C@H]1CC[C@H]2[C@@H]3CCC4=CC(=O)CC[C@]4(C)[C@H]3C(O)C[C@]12C (stereo partly specified),logP,[40],2.36
